Measured values from patent US10577395B2 (priority 2014, dated 2020).
In brackets after ≈: the same amount, converted by molar mass. Like-named read-outs stand apart in the source and are kept apart here.

What was measured:
[1] = tested on: vancomycin-resistant Enterococcus faecalis (VanB VRE, strain ATCC 51299); assay: microbe, parasite or virus in culture; format: cell-based; conditions: Enterococcus faecalis
Procedure: (§1) Assays were carried out following the methods of Clinical and Laboratory Standards Institute; Methods for Dilution Antimicrobial Susceptibility Tests for Bacteria That Grow Aerobically; Approved Standard, […].; CLSI document M07-A8; Clinical and Laboratory Standards Institute: Wayne, Pa., 2009.
(§2) This diluted bacterial stock solution was then inoculated into a well of a V-shaped 96-well glass coated microtiter plate, supplemented with serial diluted aliquots of the antibiotic solution DMSO (4 μL), to achieve a total assay volume of 0.1 mL. The plate was then incubated at 37° C. for 18 hours, after which minimal inhibitory concentrations (MICs) were determined by monitoring the cell growth (observed as a pellet) in the wells. The lowest concentration of antibiotic (in μg/mL) capable of eliminating the cell growth in the wells is reported as the MIC.

[2] = tested on: vancomycin-resistant Enterococcus faecalis (VanA VRE, BM4166); assay: microbe, parasite or virus in culture; format: cell-based; conditions: Enterococcus faecalis, VRE
Procedure: as §1, §2

[3] = tested on: Enterococcus faecium (VanA VRE, ATCC BAA-2317); assay: Antimicrobial assay, MIC, VanA E. faecium; format: cell-based; conditions: Enterococcus faecium
Procedure: as §1, §2

[4] = tested on: vancomycin-sensitive Staphylococcus aureus (VSSA strain ATCC 25923); assay: Antimicrobial assay, MIC, vancomycin-sensitive S. aureus; format: cell-based; conditions: Staphylococcus aureus, ATCC 25923
Procedure: as §1, §2

[5] = tested on: methicillin and oxacillin-resistant Staphylococcus aureus subsp. aureus (MRSA strain ATCC 43300); assay: Antimicrobial assay, MIC, MRSA; format: cell-based; conditions: Staphylococcus aureus
Procedure: as §1, §2

[6] = tested on: panel of Gram-positive bacteria (VSSA, MRSA, VanA and VanB VRE); assay: Antimicrobial assay, MIC across the bacterial panel; format: cell-based, S. aureus, E. faecalis, E. faecium; conditions: Staphylococcus aureus, read-out: MICs across the bacterial panel, vancomycin-sensitive and vancomycin-resistant strains
Procedure: as §1, §2

[7] = read-out: MIC, VanB E. faecalis
[8] = read-out: MIC, VanA E. faecalis
[9] = ATCC25923, read-out: MIC, sensitive S. aureus
[10] = read-out: MIC, Van A E. faecalis, serum concentration 10%
[11] = read-out: MIC, Van A E. faecalis, serum concentration 25%
[12] = read-out: MIC, Van A E. faecalis, serum concentration 100%
[13] = read-out: MIC, Van A E. faecium, serum concentration 10%
[14] = read-out: MIC, Van A E. faecium, serum concentration 25%
[15] = read-out: MIC, Van A E. faecium, serum concentration 100%
[16] = read-out: MIC, Van B E. faecalis, serum concentration 10%
[17] = read-out: MIC, Van B E. faecalis, serum concentration 25%
[18] = read-out: MIC, Van B E. faecalis, serum concentration 100%
[19] = ATCC25923, read-out: MIC, sensitive S. aureus, serum concentration 10%, 10%
[20] = ATCC25923, read-out: MIC, sensitive S. aureus, serum concentration 100%, 100%
[21] = ATCC25923, 25%, read-out: MIC, sensitive S. aureus, serum concentration 25%
[22] = read-out: MIC, MRSA S. aureus, serum concentration 10%
[23] = read-out: MIC, MRSA S. aureus, serum concentration 25%
[24] = read-out: MIC, MRSA S. aureus, serum concentration 100%

Structure (SMILES)	MIC [1, 7] [µg/mL]	MIC [2, 8] [µg/mL]	MIC ([3]; read-out: MIC, VanA E. faecium) [µg/mL]	MIC [4, 9] [µg/mL]	MIC ([5]; read-out: MIC, MRSA S. aureus) [µg/mL]	MIC [2, 10] [µg/mL]	MIC [2, 11] [µg/mL]	MIC [2, 12] [µg/mL]	MIC [3, 13] [µg/mL]	MIC [3, 14] [µg/mL]	MIC [3, 15] [µg/mL]	MIC [1, 16] [µg/mL]	MIC [1, 17] [µg/mL]	MIC [1, 18] [µg/mL]	MIC [6] [µg/mL]	MIC [4, 19] [µg/mL]	MIC [4, 20] [µg/mL]	MIC [4, 21] [µg/mL]	MIC [5, 22] [µg/mL]	MIC [5, 23] [µg/mL]	further results
CN[C@H](CC(C)C)C(=O)N[C@H]1C(=O)N[C@@H](CC(N)=O)C(=O)N[C@H]2C(=N)NC3C(=O)N[C@H](C(=O)N[C@H](CO)c4cc(O)cc(O)c4-c4cc3ccc4O)[C@H](O)c3ccc(c(Cl)c3)Oc3cc2cc(c3OC2OC(CO)C(O)[C@H](O)[C@@H]2O[C@H]2CC(C)(NCc3ccc(-c4ccc(Cl)cc4)cc3)[C@H](O)[C@H](C)O2)Oc2ccc(cc2Cl)[C@H]1O (stereo partly drawn) [Compound 28]	0.06 (≈ 0.0367 µM)	0.02 (≈ 0.0122 µM)	0.02 (≈ 0.0122 µM)	0.13 (≈ 0.0795 µM)	0.13 (≈ 0.0795 µM)	–	–	–	–	–	–	–	–	–	–	–	–	–	–	–	–
CN[C@H](CC(C)C)C(=O)N[C@H]1C(=O)N[C@@H](CC(N)=O)C(=O)N[C@H]2C(=N)NC3C(=O)N[C@H](C(=O)N[C@H](C(=O)O)c4cc(O)cc(O)c4-c4cc3ccc4O)[C@H](O)c3ccc(c(Cl)c3)Oc3cc2cc(c3OC2OC(CO)C(O)[C@H](O)[C@@H]2O[C@H]2CC(C)(N)[C@H](O)[C@H](C)O2)Oc2ccc(cc2Cl)[C@H]1O (stereo partly drawn) [Compound 3, [Ψ[C(═NH)NH]Tpg^4]vancomycin]	–	0.5 (≈ 0.345 µM)	0.5 (≈ 0.345 µM)	–	–	0.5 (≈ 0.345 µM)	8 (≈ 5.52 µM)	> 32	0.5 (≈ 0.345 µM)	4 (≈ 2.76 µM)	> 32	–	–	–	–	–	–	–	–	–	–
CN[C@H](CC(C)C)C(=O)N[C@H]1C(=O)N[C@@H](CC(N)=O)C(=O)N[C@H]2C(=S)NC3C(=O)N[C@H](C(=O)N[C@H](C(=O)O)c4cc(O)cc(O)c4-c4cc3ccc4O)[C@H](O)c3ccc(c(Cl)c3)Oc3cc2cc(c3OC2OC(CO)C(O)[C@H](O)[C@@H]2O[C@H]2CC(C)(N)[C@H](O)[C@H](C)O2)Oc2ccc(cc2Cl)[C@H]1O (stereo partly drawn) [Compound 2, [Ψ[C(═S)NH]Tpg^4]vancomycin]	> 32	> 32	> 32	> 32	> 32	> 32	> 32	> 32	> 32	> 32	> 32	> 32	> 32	> 32	> 32	> 32	> 32	> 32	> 32	> 32	MIC [5, 24]: > 32 µg/mL
CN[C@H](CC(C)C)C(=O)N[C@H]1C(=O)N[C@@H](CC(N)=O)C(=O)N[C@H]2CNC3C(=O)N[C@H](C(=O)N[C@H](C(=O)O)c4cc(O)cc(O)c4-c4cc3ccc4O)[C@H](O)c3ccc(c(Cl)c3)Oc3cc2cc(c3OC2OC(CO)C(O)[C@H](O)[C@@H]2O[C@H]2CC(C)(N)[C@H](O)[C@H](C)O2)Oc2ccc(cc2Cl)[C@H]1O (stereo partly drawn) [Compound 16, [Ψ[CH2NH]Tpg^4]vancomycin]	–	31 (≈ 21.6 µM)	31 (≈ 21.6 µM)	–	–	31 (≈ 21.6 µM)	62 (≈ 43.2 µM)	125 (≈ 87.1 µM)	31 (≈ 21.6 µM)	62 (≈ 43.2 µM)	125 (≈ 87.1 µM)	–	–	–	–	–	–	–	–	–	–
CN[C@H](CC(C)C)C(=O)N[C@H]1C(=O)N[C@@H](CC(N)=O)C(=O)N[C@H]2C(=S)NC3C(=O)N[C@H](C(=O)N[C@H](C(=O)O)c4cc(O)cc(O)c4-c4cc3ccc4O)[C@H](O)c3ccc(c(Cl)c3)Oc3cc2cc(c3OC2OC(CO)C(O)[C@H](O)[C@@H]2O[C@H]2CC(C)(NCc3ccc(-c4ccc(Cl)cc4)cc3)[C@H](O)[C@H](C)O2)Oc2ccc(cc2Cl)[C@H]1O (stereo partly drawn) [Compound 5, N-4-(4′-chlorobiphenyl)-methyl [Ψ[C(═S)NH]Tpg^4]vancomycin]	2 (≈ 1.2 µM)	4 (≈ 2.4 µM)	4 (≈ 2.4 µM)	2 (≈ 1.2 µM)	2 (≈ 1.2 µM)	4 (≈ 2.4 µM)	4 (≈ 2.4 µM)	8 (≈ 4.8 µM)	4 (≈ 2.4 µM)	4 (≈ 2.4 µM)	8 (≈ 4.8 µM)	2 (≈ 1.2 µM)	2 (≈ 1.2 µM)	8 (≈ 4.8 µM)	2 to 4 (≈ 1.2 to 2.4 µM)	2 (≈ 1.2 µM)	4 (≈ 2.4 µM)	2 (≈ 1.2 µM)	2 (≈ 1.2 µM)	4 (≈ 2.4 µM)	MIC [5, 24]: 4 µg/mL (≈ 2.4 µM)
